Assay: pKa value was determined
Assay type: physicochemical

pKa: 11.4
SMILES: C1CCN2C[C@@H]3C[C@@H](CN4CCCC[C@@H]34)[C@H]2C1 [SPARTEINE]

Source: ChEMBL document CHEMBL1150038, “Conformation of the CYP2D6 model substrate sparteine under physiological conditions” (Bioorg Med Chem Lett, 1993)
